# Assay results from BindingDB's records for doi:10.7270/Q2V40ST1 (Burnham Center For Chemical Genomics, 2012).
# Target: Polyadenylate-binding protein 1 (Homo sapiens, UniProt P11940)
# Experiment: MLLE binding blockers, Cy5 peptide tracer – biochemical, fluorescence polarization, Cy5-PAM2 peptide, secondary, miRNA deadenylation inhibitor project, dose response (AID 602260)
# Chain of Polyadenylate-binding protein 1 (P11940 whole entry): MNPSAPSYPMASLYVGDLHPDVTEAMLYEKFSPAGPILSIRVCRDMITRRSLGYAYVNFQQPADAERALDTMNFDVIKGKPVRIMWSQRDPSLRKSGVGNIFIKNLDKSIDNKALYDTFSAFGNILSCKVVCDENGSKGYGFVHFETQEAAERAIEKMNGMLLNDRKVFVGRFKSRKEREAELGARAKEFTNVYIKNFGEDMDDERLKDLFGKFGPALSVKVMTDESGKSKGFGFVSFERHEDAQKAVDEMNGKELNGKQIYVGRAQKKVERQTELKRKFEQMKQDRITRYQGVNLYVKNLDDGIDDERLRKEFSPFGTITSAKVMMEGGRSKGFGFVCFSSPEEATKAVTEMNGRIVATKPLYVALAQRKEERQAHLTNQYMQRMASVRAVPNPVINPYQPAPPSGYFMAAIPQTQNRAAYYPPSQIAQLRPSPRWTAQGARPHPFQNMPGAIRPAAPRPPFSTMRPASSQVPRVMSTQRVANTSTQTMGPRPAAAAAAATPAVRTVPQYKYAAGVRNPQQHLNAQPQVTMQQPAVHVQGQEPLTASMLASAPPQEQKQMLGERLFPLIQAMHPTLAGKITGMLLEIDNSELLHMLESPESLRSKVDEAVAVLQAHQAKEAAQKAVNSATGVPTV
row,IC50,SMILES
1,> 66 µM,COc1ccc(NC(=O)Cc2sc3ncnn3c2O)cc1 [MLS000115464]
2,> 66 µM,"Cc1cc(C(F)(F)F)nc(SCC(=O)Nc2nc(O)c(C)s2)n1 [N-(5-methyl-4-oxidanylidene-1,3-thiazol-2-yl)-2-[4-methyl-6-(trifluoromethyl)pyrimidin-2-yl]sulfanyl-ethanamide]"
3,> 66 µM,CCOC(=O)c1ccc(NC(=O)Cc2sc3ncnn3c2O)cc1
4,> 66 µM,Cc1ccc(NC(=O)Cc2sc(=O)n(-c3ccccc3)c2O)cc1
5,> 66 µM,CCOC(=O)CC1=C(C(=O)OCC)C(c2ccc(C)o2)C(C#N)C(=N)O1 (stereo not drawn) [ethyl 6-amino-5-cyano-2-(2-ethoxy-2-oxoethyl)-4-(5-methyl-2-furyl)-4H-pyran-3-carboxylate]
6,> 66 µM,"CCSc1sccc1C1C2=C(CCCC2=O)N(c2cccnc2)C(=N)C1C#N (stereo not drawn) [2-azanyl-4-(2-ethylsulfanylthiophen-3-yl)-5-oxidanylidene-1-pyridin-3-yl-4,6,7,8-tetrahydroquinoline-3-carbonitrile]"
7,> 66 µM,"CCOc1cc(C2C3=C(CCCC3=O)N=C3CCCC(=O)C32)ccc1OCCO (stereo not drawn) [9-[3-ethoxy-4-(2-hydroxyethoxy)phenyl]-2,3,4,5,6,7,9,10-octahydroacridine-1,8-dione]"
8,> 66 µM,O=C(O)CSc1cc(O)n(-c2ccc(Cl)c(Cl)c2)c1O
9,> 66 µM,"O=C(Cc1sc(=O)n(-c2ccccc2)c1O)Nc1ccccc1 [2-(2,4-diketo-3-phenyl-thiazolidin-5-yl)-N-phenyl-acetamide]"
10,> 66 µM,COc1cc2c(cc1OC)C(c1ccccc1O)N(c1cc(O)n(-c3ccccc3)c1O)CC2 (stereo not drawn)
11,> 66 µM,CC(C)C1=NC(=O)NC2CCCCC12 (stereo not drawn) [SMR000060291]
12,> 66 µM,"N#CC1C(=N)C2=C(N3CCCCC3)CCCC2C1(C#N)C#N (stereo not drawn) [3-Amino-4-piperidin-1-yl-5,6,7,7a-tetrahydro-indene-1,1,2-tricarbonitrile]"
13,> 66 µM,COc1ccc(C2=Nc3nnnn3C(c3ccc(F)cc3)C2)cc1 (stereo not drawn) [SMR000108015]
